Source: ChEMBL document CHEMBL4312004, “From bench to counter: Discovery and validation of a peony extract as tyrosinase inhibiting cosmeceutical” (Eur J Med Chem, 2019)
The source made the active and inactive calls. The calls are words filed in the database; no cut-off is given here.

Tests used:
B16-F10 [1] = assay: Antimelanogenic activity against C57BL/6 mouse B16F10 cells incubated for 10 to 50 uM incubated for 24 hrs; type: functional
B16-F10 [2] = assay: Cytotoxicity against C57BL/6 mouse B16F10 cells assessed as increase in cell shrinking at 50 uM incubated for 48 hrs by microscopic method; type: cell-based; conditions: b16-f10, 48 h
[3] = Stability of compound in IMDM cell medium incubated for 24 hrs by HPLC analysis; type: physicochemical
B16-F10 [4] = assay: Cytotoxicity against C57BL/6 mouse B16F10 cells assessed as reduction in cell viability incubated for 72 hrs by SRB assay relative to control; type: cell-based; conditions: b16-f10, 72 h
[5] = Stability of compound in DMSO at 10 mM incubated for 24 hrs by HPLC analysis; type: physicochemical; conditions: 10000 µM
B16-F10 [6] = assay: Antimelanogenic activity against C57BL/6 mouse B16F10 cells at 10 uM incubated for 72 hrs relative to control; type: functional
B16-F10 [7] = assay: Antimelanogenic activity against C57BL/6 mouse B16F10 cells at 50 uM incubated for 72 hrs relative to control; type: functional
B16-F10 [8] = assay: Antimelanogenic activity against C57BL/6 mouse B16F10 cells incubated for 72 hrs; type: functional, cell-based
B16-F10 [9] = assay: Cytotoxicity against C57BL/6 mouse B16F10 cells assessed as increase in membrane blebbing at 50 uM incubated for 48 hrs by microscopic method; type: cell-based; conditions: b16-f10, 48 h
[10] = Drug degradation in IMDM cell medium incubated for 24 hrs by HPLC analysis; type: physicochemical; conditions: read-out: Drug degradation
[11] = target: T1, Tyrosinase (Agaricus bisporus) (UniProt O42713); assay: Ratio of IC50 for arbutin to IC50 for test compound for inhibition of mushroom tyrosinase
T1 sequence (whole entry): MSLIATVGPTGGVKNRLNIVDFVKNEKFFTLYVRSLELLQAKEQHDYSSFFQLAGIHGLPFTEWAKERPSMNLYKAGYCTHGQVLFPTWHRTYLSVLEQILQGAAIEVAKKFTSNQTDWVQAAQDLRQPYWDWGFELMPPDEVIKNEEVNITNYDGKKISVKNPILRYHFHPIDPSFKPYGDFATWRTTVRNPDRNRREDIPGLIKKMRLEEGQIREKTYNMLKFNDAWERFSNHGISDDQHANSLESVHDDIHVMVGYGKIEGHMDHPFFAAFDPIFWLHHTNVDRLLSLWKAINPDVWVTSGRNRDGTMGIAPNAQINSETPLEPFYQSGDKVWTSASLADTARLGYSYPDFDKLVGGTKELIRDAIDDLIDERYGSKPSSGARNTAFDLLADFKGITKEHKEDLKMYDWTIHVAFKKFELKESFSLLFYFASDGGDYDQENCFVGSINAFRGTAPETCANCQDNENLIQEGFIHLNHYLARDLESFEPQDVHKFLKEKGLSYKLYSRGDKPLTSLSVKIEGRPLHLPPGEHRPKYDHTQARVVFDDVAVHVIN

Tyrosinase = target: T2, Tyrosinase (Agaricus bisporus, UniProt O42713); assay: Inhibition of mushroom tyrosinase using L-dopa as substrate preincubated for 10 mins followed by substrate addition and measured for 5 mins by photometric analysis
T2 sequence (O42713 whole entry): T1 sequence (whole entry)

Stability [3] | Stability [5] | degraded at 24 h [10] | Ratio IC50 [11] | IC50 (Tyrosinase) | Structure (SMILES) | Activity (B16-F10 [1]) | Activity (B16-F10 [2]) | Activity (B16-F10 [4]) | Activity (B16-F10 [6]) | Activity (B16-F10 [7]) | Activity (B16-F10 [8]) | Activity (B16-F10 [9])
 |  |  |  |  | OC[C@H]1O[C@@H](Oc2ccc(O)cc2)[C@H](O)[C@@H](O)[C@@H]1O | inactive |  |  |  |  |  | 
Stable | Stable |  |  |  | Oc1ccc(/C=C/c2cc(O)cc(O)c2)cc1 [RESVERATROL] | 25% | Toxic | 70% | 50% | 65% | Dose-dependent effect | Toxic
Stable | Stable |  |  |  | OC[C@H]1O[C@@H](Oc2cc(O)cc(/C=C/c3ccc(O)cc3)c2)[C@H](O)[C@@H](O)[C@@H]1O [PICEID] | inactive |  |  |  |  |  | 
Unstable | Stable | 30% | 73 | 19 µM | OC[C@H]1O[C@@H](Oc2ccc(/C=C/c3cc(O)cc(O)c3)cc2)[C@H](O)[C@@H](O)[C@@H]1O [GOB C] | 25% |  | Non-Toxic | 50% | 65% | Dose-dependent effect | 
